Assay results published in the supplement of paper PMC11208160.

Experiment: recombinant barcode read abundance after kanamycin selection (control-corrected) (log10(CPM+1)); higher = more efficient recombination; sequences stand for … in AGTGCAGAGAAAATCGGCCAGTTTTCTCTGCCTGCAGTCCGCATGCCGT…AGATTTATGCAGCGGACTGCCTTTCTCCCAAAGTGATAAACCGGACAGTATCATGGACCGGTTTTCCCGGTAATCCGTATTTGCAAGGTTGGTTTCACT; site = the 11-nt target
Procedure, shortened: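 Pooled E. coli screen pairing targets with IS621 bridge RNA target-binding loops. Each oligo (promoter, target, barcode, J23119-driven first 104 bridge RNA bases) was Gibson-cloned into a vector with the remaining 73 bp and T7-inducible recombinase, then co-electroporated with a donor plasmid. Two replicates each were plated on chloramphenicol/ampicillin LB agar (control) or chloramphenicol/ampicillin/kanamycin with 0.1 mM IPTG. Recombination efficiency is recombinant-junction barcode counts as CPM, averaged, control-corrected, reported as log10(CPM+1).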
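Also: IS621 recombinase and bridge RNA in Escherichia coli cells.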

Sequence	recombinant barcode read abundance (log10)
TAGTTTGCTTGGGTTCTAACCTGTTGCGA (site CGTCGGACTCT)	0.00829
AGTAGGACTTGGGTTCTAACCTGTTGCCT (site GGTAGGACTAG)	0.0674
TTACGTCCTTGGGTTCTAACCTGTTGCGG (site TCACGTCCTCC)	1.31
GAAGCGCCTTGGGTTCTAACCTGTTGCCT (site GAAGGGCCTAG)	0.0832
AGAAGTCCTTGGGTTCTAACCTGTTGCAG (site AGAAGTCCTCA)	0.83
GGGTCCTCTTGGGTTCTAACCTGTTGCCG (site GGGTCCTCTAG)	1.32
ACTAGGACTTGGGTTCTAACCTGTTGCGC (site ACTAGGACTAC)	0.571
TATTGATCTTGGGTTCTAACCTGTTGCCT (site TATTGATCTAG)	0.235
GCGTGTACTTGGGTTCTAACCTGTTGCCT (site GCGGGTACTAG)	0.208
CGAGCTCCTTGGGTTCTAACCTGTTGCCC (site GGAGCTCCTTG)	0.512
GGGGACCCTTGGGTTCTAACCTGTTGCGG (site GGGGACCCTGC)	0.667
CGGGTGCCTTGGGTTCTAACCTGTTGCCT (site CAGGTGCCTAG)	0.379
GATCCATCTTGGGTTCTAACCTGTTGCCT (site GGTCCATCTAG)	0.209
AAGCACTCTTGGGTTCTAACCTGTTGCCT (site AAGCATTCTAG)	0
TTGTACACTTGGGTTCTAACCTGTTGCTC (site CAACTAGCTAT)	0.043
TTGTCGACTTGGGTTCTAACCTGTTGCCA (site TTGACGACTTG)	0.105
TTGTACACTTGGGTTCTAACCTGTTGCTC (site TTGTACACTGA)	1.06
AAGCTGCCTTGGGTTCTAACCTGTTGCCT (site AAGCTGCCTAG)	1.49
GGAGCTCCTTGGGTTCTAACCTGTTGCCG (site ACTCACACTAA)	0.152
CAATGGTCTTGGGTTCTAACCTGTTGCGT (site CAATGGTCTAG)	0.638
TAGAAGACTTGGGTTCTAACCTGTTGCTC (site TAGAAGACTAA)	0.216
CCGTGGCCTTGGGTTCTAACCTGTTGCTT (site CCGTGGCCTAA)	0.176

Sequence	recombinant barcode read abundance (log10)
CTATTAGCTTGGGTTCTAACCTGTTGCCG (site CTATTAGCTCG)	0.725
AGGAGCCCTTGGGTTCTAACCTGTTGCCT (site AGGAGCCCTAG)	1.48
GGAACTACTTGGGTTCTAACCTGTTGCAC (site TTGCTAGCTCC)	0.114
GGGTTGCCTTGGGTTCTAACCTGTTGCCT (site GAGTTGCCTAG)	0.945
AATAACTCTTGGGTTCTAACCTGTTGCCT (site TATAACTCTAG)	0.139
AGGTCACCTTGGGTTCTAACCTGTTGCTT (site AGGTCACCTAC)	0.0772
CTATCGTCTTGGGTTCTAACCTGTTGCCT (site CTATCGTCTAG)	1.22
CCGTTATCTTGGGTTCTAACCTGTTGCCT (site CCGTTATCTAG)	0.0274
AGGCCGGCTTGGGTTCTAACCTGTTGCCG (site AGGCCGGCTCG)	0.329
AGTCGGCCTTGGGTTCTAACCTGTTGCCT (site ATTCGGCCTAG)	0.228
AAGTGCTCTTGGGTTCTAACCTGTTGCCG (site AGGTGCCCTCG)	0.0892
GTGAAAGCTTGGGTTCTAACCTGTTGCCA (site GTGAAAGCTTG)	0.73
GTTGGCCCTTGGGTTCTAACCTGTTGCCT (site GCTGGCCCTAG)	0.306
CTCCAAGCTTGGGTTCTAACCTGTTGCCT (site CTTCAAGCTAG)	0.0961
AGGAACCCTTGGGTTCTAACCTGTTGCTC (site AGGAACCCTGA)	0.574
GGACTATCTTGGGTTCTAACCTGTTGCCT (site GGACAATCTAG)	0.104
GGGACAGCTTGGGTTCTAACCTGTTGCCT (site GGGACAGCTAG)	1.12
CTACCACCTTGGGTTCTAACCTGTTGCCT (site CTACCAACTAG)	0.16
GCAAGTTCTTGGGTTCTAACCTGTTGCCT (site GTAAGTTCTAG)	0.229
TCTAGAGCTTGGGTTCTAACCTGTTGCCT (site TCTAGAACTAG)	0.0712
GAGTCTACTTGGGTTCTAACCTGTTGCCA (site GAGTCTACTTG)	0.317
CACGGAACTTGGGTTCTAACCTGTTGCCT (site CACGTTACTAG)	0.59

Sequence	recombinant barcode read abundance (log10)
CTACTAACTTGGGTTCTAACCTGTTGCAT (site CTACTAACTAG)	0.268
GAGGTCACTTGGGTTCTAACCTGTTGCTA (site TCTCCTCCTAT)	0.186
ATGAATGCTTGGGTTCTAACCTGTTGCCT (site ATGATTGCTAG)	0.0173
GGCAGCTCTTGGGTTCTAACCTGTTGCTT (site GGCAGGTCTAA)	0.302
TTGCCTACTTGGGTTCTAACCTGTTGCCT (site TTGCCTACTAG)	0.339
GTTCCTGCTTGGGTTCTAACCTGTTGCCT (site GTTCCTGCTAG)	0.86
AGTAGTTCTTGGGTTCTAACCTGTTGCAG (site CTCGTAGCTAG)	0.104
ATGAGGACTTGGGTTCTAACCTGTTGCGT (site CACCCCTCTCG)	0.14
GCCGAGTCTTGGGTTCTAACCTGTTGCTT (site GCCGAGTCTCA)	0.0689
ATTCCATCTTGGGTTCTAACCTGTTGCCT (site ATTCCATCTAG)	0.538
CCTAGAGCTTGGGTTCTAACCTGTTGCCT (site CCTAGATCTAG)	0.0587
CTACTAACTTGGGTTCTAACCTGTTGCTT (site CTACTAACTAT)	0.0517
GCTGAGGCTTGGGTTCTAACCTGTTGCCA (site CTCTGCTCTGA)	0.165
AACCAGCCTTGGGTTCTAACCTGTTGCCT (site AACCATCCTAG)	0
GCTCCATCTTGGGTTCTAACCTGTTGCCT (site GCTCCATCTAG)	0.941
GACATATCTTGGGTTCTAACCTGTTGCTT (site GACATATCTAA)	0.358
ACTTAGACTTGGGTTCTAACCTGTTGCCA (site ACTTAGACTAG)	0.502
AAGCGTACTTGGGTTCTAACCTGTTGCCT (site AAGCGTTCTAG)	0.128
GCCGACCCTTGGGTTCTAACCTGTTGCCG (site GCCGACCCTCG)	0.492
CCGTAGCCTTGGGTTCTAACCTGTTGCCT (site CCGAAGCCTAG)	0.129
TGCGACTCTTGGGTTCTAACCTGTTGCCT (site TGTGACTCTAG)	0.0576
CCTACAACTTGGGTTCTAACCTGTTGCCT (site CCTACATCTAG)	0.227

Sequence	recombinant barcode read abundance (log10)
CTCTCGTCTTGGGTTCTAACCTGTTGCGT (site CTCTCGTCTAA)	0.0993
GAGGTCCCTTGGGTTCTAACCTGTTGCGG (site GAGGTCCCTCC)	2.93
GTACATCCTTGGGTTCTAACCTGTTGCGT (site GTACATCCTAC)	2.13
TACCCTACTTGGGTTCTAACCTGTTGCAT (site TACACTACTAT)	0.0106
CGGGCCTCTTGGGTTCTAACCTGTTGCTA (site CGGGCCTCTAA)	0.185
CTCTGGGCTTGGGTTCTAACCTGTTGCCT (site CTCTGGGCTAG)	0.15
GTTTGATCTTGGGTTCTAACCTGTTGCCT (site GTTTGTTCTAG)	0
GTTGGTCCTTGGGTTCTAACCTGTTGCGT (site GTGAGTCCTAC)	0.136
GGAGCAGCTTGGGTTCTAACCTGTTGCCT (site GGAGCAGCTAG)	1.16
AATGGTCCTTGGGTTCTAACCTGTTGCCA (site AATGGTCCTTG)	0.588
ACAGGGTCTTGGGTTCTAACCTGTTGCCT (site AGAGGGTCTAG)	0.193
GTGACCTCTTGGGTTCTAACCTGTTGCCT (site GCTACCTCTAG)	0.0896
CCTAATCCTTGGGTTCTAACCTGTTGCGT (site CCTAAGCCTAC)	0.22
ATGACCTCTTGGGTTCTAACCTGTTGCCT (site ATGTCCTCTAG)	0.0902
CACCGAGCTTGGGTTCTAACCTGTTGCCG (site CAACGAGCTCG)	0.223
CATCAAGCTTGGGTTCTAACCTGTTGCCT (site CATCAAGCTAG)	0.929
AGCAGCACTTGGGTTCTAACCTGTTGCCT (site CGCAGCACTAG)	0.298
CAATGGTCTTGGGTTCTAACCTGTTGCGT (site CAATGGTCTAA)	0.583
ACATGTACTTGGGTTCTAACCTGTTGCTG (site ACATGTACTCA)	1.1
AATGCTCCTTGGGTTCTAACCTGTTGCGT (site AATGCTCCTAA)	0.116
